Patent publication US9546164B2 (GENENTECH, INC., priority 2013, dated 2017)
Structures can show the parent of a compound that is named as a salt.

Molecular target: hNav1.7 (Homo sapiens (Human), UniProt Q15858)
Assay: Tritiated sulfonamide competitive binding to membranes from cells expressing hNav1.7 and the β1 subunit;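 also: Filter-bound radioactivity counted by liquid scintillation, nonspecific binding defined with excess unlabelled ligand, IC50 fitted to percent inhibition of specific binding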
Conditions: read-out: Ligand Binding Assay; 100 pM [3H]compound, membranes with hNav1.7 and β1 subunit, 18 h, room temperature

Sequence of hNav1.7 (Q15858 other isoform, or with tags, fused parts or gaps): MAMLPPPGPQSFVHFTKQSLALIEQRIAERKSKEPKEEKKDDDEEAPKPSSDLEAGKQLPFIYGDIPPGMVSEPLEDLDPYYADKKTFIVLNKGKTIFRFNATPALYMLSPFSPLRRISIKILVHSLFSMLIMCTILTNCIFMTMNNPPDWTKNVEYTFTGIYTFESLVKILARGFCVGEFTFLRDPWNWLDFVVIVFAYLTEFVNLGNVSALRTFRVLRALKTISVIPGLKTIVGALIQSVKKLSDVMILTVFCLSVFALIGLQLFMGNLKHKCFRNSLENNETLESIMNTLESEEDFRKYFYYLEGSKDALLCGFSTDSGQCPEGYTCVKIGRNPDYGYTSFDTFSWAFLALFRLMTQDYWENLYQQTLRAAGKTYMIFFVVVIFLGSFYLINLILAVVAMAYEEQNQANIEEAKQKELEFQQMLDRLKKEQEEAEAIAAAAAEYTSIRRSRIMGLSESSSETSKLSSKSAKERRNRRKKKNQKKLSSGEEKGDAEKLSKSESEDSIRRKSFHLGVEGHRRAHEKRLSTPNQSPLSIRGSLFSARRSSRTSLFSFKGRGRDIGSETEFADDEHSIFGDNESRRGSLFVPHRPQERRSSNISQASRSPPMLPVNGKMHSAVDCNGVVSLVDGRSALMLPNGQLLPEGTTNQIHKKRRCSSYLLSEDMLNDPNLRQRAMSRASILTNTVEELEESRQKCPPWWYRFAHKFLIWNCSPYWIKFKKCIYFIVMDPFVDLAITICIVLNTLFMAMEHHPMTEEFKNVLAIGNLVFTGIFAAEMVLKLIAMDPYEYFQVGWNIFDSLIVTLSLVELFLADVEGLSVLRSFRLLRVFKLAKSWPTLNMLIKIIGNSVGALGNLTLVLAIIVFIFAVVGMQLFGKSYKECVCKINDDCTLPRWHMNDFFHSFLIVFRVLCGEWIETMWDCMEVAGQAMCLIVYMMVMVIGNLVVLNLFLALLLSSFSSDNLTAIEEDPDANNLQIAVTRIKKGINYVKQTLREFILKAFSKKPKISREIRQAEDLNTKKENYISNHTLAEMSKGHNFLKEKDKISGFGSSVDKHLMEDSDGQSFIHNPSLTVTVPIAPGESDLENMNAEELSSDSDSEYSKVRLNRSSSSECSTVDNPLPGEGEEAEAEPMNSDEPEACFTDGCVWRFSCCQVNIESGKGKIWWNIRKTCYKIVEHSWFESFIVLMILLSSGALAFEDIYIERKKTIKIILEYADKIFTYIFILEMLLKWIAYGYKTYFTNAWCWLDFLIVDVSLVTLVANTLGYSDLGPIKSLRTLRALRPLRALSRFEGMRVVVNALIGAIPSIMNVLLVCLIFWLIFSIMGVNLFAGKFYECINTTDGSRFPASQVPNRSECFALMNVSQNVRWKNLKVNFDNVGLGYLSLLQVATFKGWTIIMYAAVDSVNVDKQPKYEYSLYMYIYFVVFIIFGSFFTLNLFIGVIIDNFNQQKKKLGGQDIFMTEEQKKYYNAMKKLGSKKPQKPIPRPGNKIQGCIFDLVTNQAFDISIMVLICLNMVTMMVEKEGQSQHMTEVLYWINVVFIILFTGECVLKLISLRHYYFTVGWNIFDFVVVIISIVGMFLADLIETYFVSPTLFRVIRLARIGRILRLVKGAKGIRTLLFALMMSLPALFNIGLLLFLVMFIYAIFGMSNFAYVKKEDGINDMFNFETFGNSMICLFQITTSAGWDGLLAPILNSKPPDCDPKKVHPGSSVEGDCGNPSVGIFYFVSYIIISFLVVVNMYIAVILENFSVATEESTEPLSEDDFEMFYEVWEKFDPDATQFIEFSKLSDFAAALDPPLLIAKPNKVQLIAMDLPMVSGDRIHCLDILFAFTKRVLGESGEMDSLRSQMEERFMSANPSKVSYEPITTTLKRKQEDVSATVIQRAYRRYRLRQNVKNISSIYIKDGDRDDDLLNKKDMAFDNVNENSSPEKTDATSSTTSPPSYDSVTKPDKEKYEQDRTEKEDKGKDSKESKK
Sequence of hNav1.7 (Q07699 19-218 partner): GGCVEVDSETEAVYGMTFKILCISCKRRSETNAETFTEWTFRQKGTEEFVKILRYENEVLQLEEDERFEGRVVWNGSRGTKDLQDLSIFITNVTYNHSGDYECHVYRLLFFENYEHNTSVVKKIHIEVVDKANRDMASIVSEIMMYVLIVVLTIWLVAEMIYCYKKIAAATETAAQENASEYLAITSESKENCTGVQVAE

Row | IC50 [nM] | SMILES
1 | 4.4 | CS(=O)(=O)NC(=O)c1cc(C2CC2)c(CN2CCO[C@H](Cc3ccc(Cl)c(Cl)c3)C2)cc1F [Example 458, (R)-5-cyclopropyl-4-((2-(3,4-dichlorobenzyl)morpholino)methyl)-2-fluoro-N-(methylsulfonyl)benzamide]
2 | 12.5 | O=C(NS(=O)(=O)N1CCC1)c1cc(C2CC2)c(CN2CCO[C@H](Cc3ccc(Cl)c(Cl)c3)C2)cc1F [Example 459, (R)—N-(azetidin-1-ylsulfonyl)-5-cyclopropyl-4-((2-(3,4-dichlorobenzyl)morpholino)methyl)-2-fluorobenzamide]
3 | 5 | O=C(NS(=O)(=O)C1CC1)c1cc(C2CC2)c(CN2CCO[C@H](Cc3ccc(Cl)c(Cl)c3)C2)cc1F [Example 460, (R)-5-cyclopropyl-N-(cyclopropylsulfonyl)-4-((2-(3,4-dichlorobenzyl)morpholino)methyl)-2-fluorobenzamide]
4 | 42.1 | CS(=O)(=O)NC(=O)c1cc(C2CC2)c(CN2CCO[C@@H](Cc3ccc(Cl)c(Cl)c3)C2)cc1F [Example 461, (S)-5-cyclopropyl-4-((2-(3,4-dichlorobenzyl)morpholino)methyl)-2-fluoro-N-(methylsulfonyl)benzamide]
5 | 36.3 | O=C(NS(=O)(=O)C1CC1)c1cc(C2CC2)c(CN2CCO[C@@H](Cc3ccc(Cl)c(Cl)c3)C2)cc1F [Example 462]
6 | 12.8 | O=C(NS(=O)(=O)N1CCC1)c1cc(C2CC2)c(CN2CCO[C@H](Cc3cc(Cl)cc(Cl)c3)C2)cc1F [Example 465, (R)—N-(azetidin-1-ylsulfonyl)-5-cyclopropyl-4-((2-(3,5-dichlorobenzyl)morpholino)methyl)-2-fluorobenzamide, trifluoroacetic acid salt]
7 | 7.3 | CS(=O)(=O)NC(=O)c1cc(C2CC2)c(CN2CCO[C@H](Cc3ccc(F)cc3Cl)C2)cc1F [Example 466, (R)-4-((2-(2-chloro-4-fluorobenzyl)morpholino)methyl)-5-cyclopropyl-2-fluoro-N-(methylsulfonyl)benzamide, trifluoroacetic acid salt]
8 | 4.3 | O=C(NS(=O)(=O)C1CC1)c1cc(C2CC2)c(CN2CCO[C@H](Cc3ccc(F)cc3Cl)C2)cc1F [Example 467, (R)-4-((2-(2-chloro-4-fluorobenzyl)morpholino)methyl)-5-cyclopropyl-N-(cyclopropylsulfonyl)-2-fluorobenzamide, trifluoroacetic acid salt]
9 | 11.3 | O=C(NS(=O)(=O)N1CCC1)c1cc(C2CC2)c(CN2CCO[C@H](Cc3ccc(F)cc3Cl)C2)cc1F [Example 468, (R)-N-(azetidin-1-ylsulfonyl)-4-((2-(2-chloro-4-fluorobenzyl)morpholino)methyl)-5-cyclopropyl-2-fluorobenzamide, trifluoroacetic acid salt]
10 | 98.9 | CC1(C)CO[C@H](Cc2cc(Cl)cc(Cl)c2)CN1Cc1cc(F)c(C(=O)NS(C)(=O)=O)cc1C1CC1 [Example 469, (R)-5-cyclopropyl-4-((2-(3,5-dichlorobenzyl)-5,5-dimethylmorpholino)methyl)-2-fluoro-N-(methylsulfonyl)benzamide, trifluoroacetic acid salt]
11 | 3.6 | CC1(Oc2cc(C(F)(F)F)c(Cl)cn2)CCN(Cc2cc(F)c(C(=O)NS(=O)(=O)C3CC3)cc2C2CC2)CC1 [Example 472, 4-((4-((5-chloro-4-(trifluoromethyl)pyridin-2-yl)oxy)-4-methylpiperidin-1-yl)methyl)-5-cyclopropyl-N-(cyclopropylsulfonyl)-2-fluorobenzamide, trifluoroacetic acid salt]
12 | 9.5 | O=C(NS(=O)(=O)C1CC1)c1cc(C2CC2)c(CN2CCC(Oc3ncc(Br)cc3Cl)CC2)cc1F [Example 473, 4-((4-((5-bromo-3-chloropyridin-2-yl)oxy)piperidin-1-yl)methyl)-5-cyclopropyl-N-(cyclopropylsulfonyl)-2-fluorobenzamide, trifluoroacetic acid salt]

The next lines start with the molecule.

Row | SMILES | IC50 [nM]
13 | CS(=O)(=O)NC(=O)c1cc(C2CC2)c(O[C@@H]2CCCN(Cc3ccc(S(C)(=O)=O)cc3Cl)C2)cc1F [Example 441, (R)-4-((1-(2-chloro-4-(methylsulfonyl)benzyl)piperidin-3-yl)oxy)-5-cyclopropyl-2-fluoro-N-(methylsulfonyl)benzamide, trifluoroacetic acid salt] | 138
14 | CS(=O)(=O)NC(=O)c1cc(C2CC2)c(O[C@@H]2CCCN(Cc3ccccc3-c3ccccc3)C2)cc1F [Example 442, (R)-4-((1-([1,1′-biphenyl]-2-ylmethyl)piperidin-3-yl)oxy)-5-cyclopropyl-2-fluoro-N-(methylsulfonyl)benzamide, trifluoroacetic acid salt] | 3.1
15 | CS(=O)(=O)NC(=O)c1cc(C2CC2)c(O[C@@H]2CCCN(Cc3cccc(-c4ccccc4)c3)C2)cc1F [Example 443, (R)-4-((1-([1,1′-biphenyl]-3-ylmethyl)piperidin-3-yl)oxy)-5-cyclopropyl-2-fluoro-N-(methylsulfonyl)benzamide, trifluoroacetic acid salt] | 3.4
16 | CS(=O)(=O)NC(=O)c1cc(C2CC2)c(O[C@@H]2CCCN(CC3CCC4(CCC4)CC3)C2)cc1F [Example 444, (R)-5-cyclopropyl-2-fluoro-N-(methylsulfonyl)-4-((11-(spiro[3.5]nonan-7-ylmethyl)piperidin-3-yl)oxy)benzamide, trifluoroacetic acid salt] | 4.5
17 | CS(=O)(=O)NC(=O)c1cc(C2CC2)c(O[C@H]2CN(Cc3ccc(F)cc3Cl)CC(F)(F)C2)cc1F [Example 445, (R)-4-((1-(2-chloro-4-fluorobenzyl)-5,5-difluoropiperidin-3-yl)oxy)-5-cyclopropyl-2-fluoro-N-(methylsulfonyl)benzamide] | 6.1
18 | COC[C@@H](c1cc(Cl)cc(Cl)c1)N1CCC[C@@H](Oc2cc(F)c(C(=O)NS(C)(=O)=O)cc2C2CC2)C1 [Example 447, 5-cyclopropyl-4-(((R)-1-((R)-1-(3,5-dichlorophenyl)-2-methoxyethyl)piperidin-3-yl)oxy)-2-fluoro-N-(methylsulfonyl)benzamide] | 6
19 | COC[C@H](c1cc(Cl)cc(Cl)c1)N1CCC[C@@H](Oc2cc(F)c(C(=O)NS(C)(=O)=O)cc2C2CC2)C1 [Example 448, 5-cyclopropyl-4-(((R)-1-((S)-1-(3,5-dichlorophenyl)-2-methoxyethyl)piperidin-3-yl)oxy)-2-4-N-(methylsulfonyl)benzamide, trifluoroacetic acid salt] | 10.5
20 | CS(=O)(=O)NC(=O)c1cc(C2CC2)c(OCC2CC3CCC(C2)N3Cc2cc(Cl)cc(Cl)c2)cc1F [Example 449, 5-cyclopropyl-4-(((1R,3R,5S)-8-(3,5-dichlorobenzyl)-8-azabicyclo[3.2.1]octan-3-yl)methoxy)-2-fluoro-N-(methylsulfonyl)benzamide] | 17.1
21 | C[C@@H](c1ccc(F)cc1Cl)N1C[C@H]2C[C@@H]1[C@H](Oc1cc(F)c(C(=O)NS(C)(=O)=O)cc1C1CC1)C2 [Example 450, 4-(((1R,4S,6R)-2-((S)-1-(2-chloro-4-fluorophenyl)ethyl)-2-azabicyclo[2.2.1]heptan-6-yl)oxy)-5-cyclopropyl-2-fluoro-N-(methylsulfonyl)benzamide, trifluoroacetic acid salt] | 9.9
22 | C[C@H](c1ccc(F)cc1Cl)N1C[C@H]2C[C@@H]1[C@H](Oc1cc(F)c(C(=O)NS(C)(=O)=O)cc1C1CC1)C2 [Example 451, 4-(((1R,4s,6R)-2-((R)-1-(2-chloro-4-fluorophenyl)ethyl)-2-azabicyclo[2.2.1]heptan-6-yl)oxy)-5-cyclopropyl-2-fluoro-N-(methylsulfonyl)benzamide, trifluoroacetic acid salt] | 25.7
23 | C[C@H](c1ccc(F)cc1Cl)N1C[C@H](Oc2cc(F)c(C(=O)NS(C)(=O)=O)cc2C2CC2)CC(C)(C)C1 [Example 452, 4-(((R)-1-((R)-1-(2-chloro-4-fluorophenyl)ethyl)-5,5-dimethylpiperidin-3-yl)oxy)-5-cyclopropyl-2-fluoro-N-(methylsulfonyl)benzamide, trifluoroacetic acid salt] | 43.2
24 | CS(=O)(=O)NC(=O)c1cc(C2CC2)c(OCC2CCN(Cc3cc(F)c(Cl)cc3Cl)CC2)cc1F [Example 453, 5-cyclopropyl-4-((1-(2,4-dichloro-5-fluorobenzyl)piperidin-4-yl)methoxy)-2-fluoro-N-(methylsulfonyl)benzamide, trifluoroacetic acid salt] | 3
25 | CS(=O)(=O)NC(=O)c1cc(C2CC2)c(OCC2CCN(Cc3cc(Cl)c(F)c(Cl)c3)CC2)cc1F [Example 454, 5-cyclopropyl-4-((1-(3,5-dichloro-4-fluorobenzyl)piperidin-4-yl)methoxy)-2-fluoro-N-(methylsulfonyl)benzamide, trifluoroacetic acid salt] | 5
26 | CS(=O)(=O)NC(=O)c1cc(C2CC2)c(OCC2CCN(Cc3cc(Cl)c(F)cc3F)CC2)cc1F [Example 455, trifluoroacetic acid salt] | 8.5
27 | CS(=O)(=O)NC(=O)c1cc(C2CC2)c(OCC2CCN(Cc3cc(F)c(F)c(Cl)c3)CC2)cc1F [Example 456, 4-((1-(3-chloro-4,5-difluorobenzyl)piperidin-4-yl)methoxy)-5-cyclopropyl-2-fluoro-N-(methylsulfonyl)benzamide, trifluoroacetic acid salt] | 9.3
28 | O=C(NS(=O)(=O)C1CC1)c1cc(C2CC2)c(CN2[C@@H]3CC[C@H]2CC(Oc2cc(C(F)(F)F)cc(Cl)c2F)C3)cc1F (stereo partly drawn) [Example 470, 4-(((1R,3r,5S)-3-(3-chloro-2-fluoro-5-(trifluoromethyl)phenoxy)-8-azabicyclo[3.2.1]octan-8-yl)methyl)-5-cyclopropyl-N-(cyclopropylsulfonyl)-2-fluorobenzamide, trifluoroacetic acid salt] | 3.8
29 | CS(=O)(=O)NC(=O)c1cc(C2CC2)c(CN2[C@@H]3CC[C@H]2CC(Oc2cc(C(F)(F)F)cc(Cl)c2F)C3)cc1F (stereo partly drawn) [Example 471, 4-(((1R,3r,5S)-3-(3-chloro-2-fluoro-5-(trifluoromethyl)phenoxy)-8-azabicyclo[3.2.1]octan-8-yl)methyl)-5-cyclopropyl-2-fluoro-N-(methylsulfonyl)benzamide 2,2,2-trifluoroacetate] | 3.7
